Source: paper PMC7582737, “Melanocortin Receptor 4 (MC4R) Signaling System in Nile Tilapia” (International Journal of Molecular Sciences, 2020)

B1: tilapia ACTH(1-40) (derived from the POMCa1 precursor) (peptide)
peptide: SYSMEHFRWGKPVGRKRRPVKVYTSNGVAEESAEVFPEEM
B2: tilapia α-MSH (acetyl-α-MSH with an amidated C-terminus; derived from the POMCa1 precursor) (peptide)
peptide: Ac-SYSMEHFRWGKPV-NH2
B3: tilapia β-MSH (derived from the POMCa1 precursor) (peptide)
peptide: DGSYKMKHFRWSGPPAS

Tests used:
MC4R = test system: MC4R; parameters: method as in PMID 24085819, PMID 31398355, PMID 31299224, PMID 32922362; conditions: mammalian peptides; cited from earlier work
tilapia MC4R + MRAP2b = conditions: HEK293 cells; cited from earlier work
From the text: The presence of all MC4R signaling components in tilapia led us to further examine their interaction in vitro. […] Our finding partly agrees with recent findings in spotted gar, tilapia, topmouth culter, and zebrafish, showing that MC4R could be activated by mam ...

goldfish = conditions: cited from earlier work
From the text: In the brain, all genes were detected to be highly or moderately expressed. This finding is consistent with previous reports in teleosts, such as zebrafish and medaka, in which all the genes are expressed in the brain as detected by qRT-PCR assays.

rainbow trout = conditions: cited from earlier work
zebrafish = conditions: ip/icv injection of MC4R agonist; cited from earlier work
[1] = biological target: tilapia melanocortin receptor 4 (MC4R), N-terminally 3xFlag-tagged (Nile tilapia (Oreochromis niloticus))
[2] = biological target: tilapia melanocortin receptor 4 (MC4R), N-terminally 3xFlag-tagged (Nile tilapia (Oreochromis niloticus)); remark: listed apart in the source
[3] = ip/icv injection of MC4R agonist

| Molecule | activation of MC4R, relative potency (in words) (MC4R) | EC50 of activating the cAMP/PKA signaling pathway (pGL3-CRE-luciferase reporter) in CHO cells expressing tilapia MC4R in the presence of MRAP2b [2] | EC50 of activating the cAMP/PKA signaling pathway (pGL3-CRE-luciferase reporter) in CHO cells expressing tilapia MC4R, without MRAP2b [2] | also measured |
| --- | --- | --- | --- | --- |
| ACTH1-24: mammalian ACTH1-24 (cited) | with similar potencies | – | – | – |
| ACTH1-39 | with similar potencies | – | – | effect of MRAP2b on EC50 value in activating tilapia MC4R (tilapia MC4R + MRAP2b): cannot significantly alter the EC50 value |
| HS024 | – | – | – | effect on food intake, goldfish (goldfish; injection of MC4R antagonist): stimulate food intake; effect on food intake, rainbow trout (rainbow trout; injection of MC4R antagonist): stimulate food intake |
| MTII | – | – | – | effect on feeding, goldfish (goldfish; [3]): reduce the feeding; effect on feeding, rainbow trouts (rainbow trout; [3]): reduce the feeding; effect on feeding, zebrafish (zebrafish): reduce the feeding |
| NDP-α-MSH | with similar potencies | – | – | – |
| tilapia melanocortin-2 receptor accessory protein 2b (MRAP2b), N-terminally Myc-tagged (natural protein) | – | – | – | sensitivity and selectivity of MC4R for ACTH(1-40) with MRAP2b co-expressed, against MC4R alone (EC50 0.246 nM vs. 0.032 nM; pGL3-CRE-luciferase reporter, CHO cells) [1]: 8 fold |
| B1 | – | 32 pM | 0.246 nM | – |
| B2 | – | 0.786 nM | 0.955 nM | – |
| B3 | – | 0.572 nM | 0.421 nM | – |
